Source: patent publication US20150045410A1, “METHOD OF REGULATING CFTR EXPRESSION AND PROCESSING” (University of Iowa Research Foundation, priority 2012, published 2015)

Target: T1, CFTR-ΔF508 (Homo sapiens, UniProt P13569, DEL508-508)
T1 construct: expressed in transfected cells
Experiment: Cell surface ELISA (anti-HA) in HeLa cells stably expressing HA-tagged CFTR-ΔF508
Assay type: cell-based
Details: HeLa-ΔF508-CFTR-HA cells treated daily with drugs, 72 hr post-treatment, vs DMSO (FIG. 28, 29)

T1 sequence (P13569 with tags, fused parts or gaps DEL508-508): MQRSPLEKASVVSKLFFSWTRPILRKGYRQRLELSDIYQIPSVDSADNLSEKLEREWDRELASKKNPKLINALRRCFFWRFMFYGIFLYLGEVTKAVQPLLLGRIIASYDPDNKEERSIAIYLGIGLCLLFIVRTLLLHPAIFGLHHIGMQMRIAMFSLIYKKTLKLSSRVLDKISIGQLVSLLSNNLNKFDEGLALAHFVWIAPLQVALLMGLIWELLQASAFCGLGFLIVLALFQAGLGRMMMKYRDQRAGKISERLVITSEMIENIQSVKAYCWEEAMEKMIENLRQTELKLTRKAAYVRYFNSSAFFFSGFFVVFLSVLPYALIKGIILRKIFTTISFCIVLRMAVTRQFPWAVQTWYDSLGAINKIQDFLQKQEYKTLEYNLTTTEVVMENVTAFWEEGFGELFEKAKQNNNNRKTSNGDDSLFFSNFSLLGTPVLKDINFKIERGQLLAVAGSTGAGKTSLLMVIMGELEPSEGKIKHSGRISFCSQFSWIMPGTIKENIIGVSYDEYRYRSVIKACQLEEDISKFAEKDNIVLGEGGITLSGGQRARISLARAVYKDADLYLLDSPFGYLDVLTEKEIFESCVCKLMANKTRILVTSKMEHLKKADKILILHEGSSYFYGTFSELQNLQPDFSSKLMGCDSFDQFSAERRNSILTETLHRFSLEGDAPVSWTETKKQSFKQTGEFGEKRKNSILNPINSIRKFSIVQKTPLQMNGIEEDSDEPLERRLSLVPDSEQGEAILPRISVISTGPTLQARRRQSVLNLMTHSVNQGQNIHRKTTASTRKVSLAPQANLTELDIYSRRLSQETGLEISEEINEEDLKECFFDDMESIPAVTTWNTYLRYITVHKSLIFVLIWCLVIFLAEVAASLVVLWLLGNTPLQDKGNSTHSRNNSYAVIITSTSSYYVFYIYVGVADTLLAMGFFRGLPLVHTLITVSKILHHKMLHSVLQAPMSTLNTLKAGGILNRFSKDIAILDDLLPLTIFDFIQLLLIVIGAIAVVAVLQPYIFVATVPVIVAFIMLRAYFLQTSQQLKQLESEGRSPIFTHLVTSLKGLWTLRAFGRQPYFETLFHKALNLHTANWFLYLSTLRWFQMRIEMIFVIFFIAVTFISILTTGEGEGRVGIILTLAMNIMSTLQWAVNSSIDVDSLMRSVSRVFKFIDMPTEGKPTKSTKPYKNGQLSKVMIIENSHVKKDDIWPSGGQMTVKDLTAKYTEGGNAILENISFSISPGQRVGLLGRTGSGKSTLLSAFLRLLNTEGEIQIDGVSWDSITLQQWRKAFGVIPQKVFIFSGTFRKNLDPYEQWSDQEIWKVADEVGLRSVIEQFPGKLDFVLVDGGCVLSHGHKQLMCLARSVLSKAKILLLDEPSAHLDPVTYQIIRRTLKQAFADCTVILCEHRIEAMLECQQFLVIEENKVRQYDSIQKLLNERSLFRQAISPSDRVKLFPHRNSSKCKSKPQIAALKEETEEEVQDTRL

| Compound | surface display of ΔF508-CFTR (live cell-surface ELISA) | surface display of ΔF508-CFTR (live cell-surface ELISA) (listed as pyridostigmine) |
| --- | --- | --- |
| CN(C)C(=O)Oc1ccc[n+](C)c1 [Pyridostigmine] | rescues ΔF508-CFTR trafficking | increased |
| CN(C)C(=O)Oc1cccc([N+](C)(C)C)c1 [Neostigmine, 3-{[(dimethylamino)carbonyl]oxy}-N,N,N-trimethylbenzenaminium] | increased | – |
